# Measurements taken from patent EP4733383A1, “CULTURE MEDIUM AND BLOOD CELL CLONE, AND METHOD FOR PRODUCING SAME” (Japan Institute for Health Security, priority 2023, dated 2024).
# Entries after “also recorded” stand apart in the source; their conditions may differ.
# Key:
# Assay type in all cases: cell-based
# mouse HSCs = assay: Short-term culture of HSCs (one week) with thyroid hormones and metabolites; settings: 10 µM; for number of HSCs after culture (total cell count per colony): 300 mouse HSCs cultured one week in SF-O3, SCF 100ng/mL, TPO 100ng/mL, vs control (Ctl), Figure 1; for CD48 expression (mean fluorescence intensity of CD48 staining per colony): one week culture, CD48 is a marker for cells differentiating from HSCs, Figure 2
# Method: Method: A population containing mouse hematopoietic stem cells was processed using a cell sorter to enrich cells with the surface phenotype CD150^+ CD48^- EPCR^+ Lineage^- Sca-1^+c-Kit^+. These purified cells are hereinafter referred to as mouse HSCs. 300 mouse HSCs were cultured for one week at 37°C under 5% CO2 in medium containing SF-O3 (Sanko Junyaku), SCF 100ng/mL, and TPO 100ng/mL. The number of cells in each colony formed after culture was counted. All subsequent culture experiments were performed at 37°C under 5% CO2. The concentration of each thyroid hormone and its metabolites was set to 10 µM. The control group (Ctl) medium contained no added thyroid hormones or metabolites.
# Results: The groups treated with thyroid hormones and their metabolites were compared to the control group (Ctl). […] Circles represent counts per colony. Error bars indicate standard deviation. "Ctl" on the x-axis denotes the absence of added thyroid hormones and their metabolites. […] Circles represent measured values per colony. Error bars indicate standard deviation.
# In Figures 1 and 2, T4 denotes thyroxine (T4). T3 denotes 3,3',5-triiodo-L-thyronine (T3). rT3 denotes 3,3',5'-triiodothyronine (rT3). 3,3'T2 denotes 3,3'-diiodo-L-thyronine (3,3'-T2). 3,5T2 denotes 3,5-diiodo-L-thyronine (3,5-T2). 3',5'T2 denotes 3',5'-diiodo-L-thyronine (3',5'-T2). T1AA denotes 3-iodothyroacetic acid (3-T1AA). T1AM denotes 3-iodothyronamine (3-T1AM). L-T0 denotes L-thyronine (T0). DL-T0 denotes the racemic form of thyronine.
# [1] = tested on: EPCR-positive HSCs (EPCR+HSCs); assay: Culture of HSCs in the presence of carboxylic acid derivatives of thyronine; settings: compared to the control group treated with DMSO alone; Figure 9
# Text: T3 represents 3,3',5-triiodo-L-thyronine (T3). T3 acetic acid denotes 3,3',5-triiodo-L-thyroacetic acid (T3AA). 35T2 denotes 3,5-diiodo-L-thyronine (3,5-T2). 35T2 acetic acid denotes 3,5-diiodo-L-thyroacetic acid (3,5-T2AA). 33T2 denotes 3,3'-diiodo-L-thyronine (3,3'-T2).
# mouse-derived HSCs [2] = assay: Expansion of mouse-derived HSCs in serum-free medium containing PVA; settings: serum-free medium containing PVA and T2
# Method: Mouse-derived HSCs were cultured in serum-free medium containing PVA and T2 instead of the serum-containing T2 medium described above. HSC expansion was also promoted in this serum-free medium. Furthermore, HSC differentiation was suppressed. At this time, the optimal concentration of T2 was 0.1 µM.
# EPCR+HSC = assay: 4-week culture of hematopoietic cells in the presence of T2
# Text: The control group received only DMSO. Differentiated blood cells are c-Kit-negative cells. MPP3, MPP2, and MPP1 are multipotent progenitor cells (MPPs) referred to as hematopoietic progenitor cells. EPCR-HSC are EPCR-negative HSCs. EPCR-HSC are slightly less functional than EPCR-positive HSCs. EPCR+HSC are EPCR-positive HSCs. EPCR+HSC represent the most undifferentiated population among HSCs.
# mouse-derived HSCs [3] = assay: Culture of HSCs in medium containing a thyroid hormone derivative; settings: medium containing sobetirome
# Text: Additionally, HSC differentiation was suppressed.
Compound,number of HSCs after culture (total cell count per colony) (mouse HSCs),CD48 expression (mean fluorescence intensity of CD48 staining per colony) (mouse HSCs),proportion of EPCR+HSCs after culturing HSCs [1],further results
"N[C@@H](Cc1ccc(Oc2ccc(O)c(I)c2)c(I)c1)C(=O)O [3,3'-T2, 3,3'-Diiodo-L-thyronine]",high,maintained at low levels; also recorded: most strongly suppressed CD48 expression,increased,–
"N[C@@H](Cc1cc(I)c(Oc2ccc(O)cc2)c(I)c1)C(=O)O [3,5-T2, 3,5-Diiodo-L-thyronine]",high,maintained at low levels,increased,–
"O=C(O)Cc1cc(I)c(Oc2ccc(O)cc2)c(I)c1 [35T2 acetic acid, 3,5-Diiodo-L-thyroacetic acid]",–,–,increased,–
"O=C(O)Cc1ccc(Oc2ccc(O)cc2)c(I)c1 [T1AA, 3-Iodo-L-thyroacetic acid]",tendency to promote cell proliferation,tendency to reduce CD48 expression,–,–
"N[C@@H](Cc1ccc(Oc2ccc(O)c(I)c2)c(I)c1)C(=O)O [T2, 3,3'-Diiodo-L-thyronine]",–,–,–,"HSC differentiation (mouse-derived HSCs [2]): suppressed; HSC expansion (mouse-derived HSCs [2]): promoted; optimal concentration of T2 (mouse-derived HSCs [2]): 0.1 µM; expansion factor of EPCR+HSC (EPCR+HSC; EPCR+HSC cultured 4 weeks in the presence of T2): 204 fold; EPCR+HSC expansion (EPCR+HSC; EPCR+HSC cultured 4 weeks in the presence of T2, vs control group (DMSO), Figure 10): expanded more than in the control group; expansion of other cells derived from EPCR+HSC (EPCR-HSC, MPP3, MPP2, MPP1, differentiated blood cells) (EPCR+HSC; EPCR+HSC cultured 4 weeks in the presence of T2, Figure 10): expanded"
"N[C@@H](Cc1cc(I)c(Oc2ccc(O)c(I)c2)c(I)c1)C(=O)O [T3, 3,3',5-triiodo-L-thyronine]",high,maintained at low levels,increased,–
"N[C@@H](Cc1cc(I)c(Oc2cc(I)c(O)c(I)c2)c(I)c1)C(=O)O [T4, thyroxine]",high,maintained at low levels,–,–
"N[C@@H](Cc1ccc(Oc2cc(I)c(O)c(I)c2)c(I)c1)C(=O)O [rT3, 3,3',5'-Triiodothyronine]",high,maintained at low levels,–,–
"Cc1cc(OCC(=O)O)cc(C)c1Cc1ccc(O)c(C(C)C)c1 [sobetirome, Sobetirome]",–,–,–,HSC differentiation (mouse-derived HSCs [3]): suppressed; HSC expansion (mouse-derived HSCs [3]): promoted HSC expansion
